Assay results taken from patent US10525055B2, “Opioid receptor antagonist prodrugs” (Nirsum Laboratories, Inc., priority 2017, dated 2020).

Legend:
[1] = Liver S9 fraction stability, dog; format: in vitro ADME; details: 1.0 mg/ml S9 protein, 2 μM, 37° C.
Protocol: (§1) Liver S9 fraction stability determination of the test compounds in dog, cynomolgus monkey and human is performed using HPLC-MS. Test compound (2 μM, 0.1% DMSO, 1% Methanol final concentration) was assessed for stability in a 50 μl phosphate buffer containing 1.0 mg/ml S9 protein from each of the three species and 5 mM D-saccharic acid-1, 4-lactone. Samples were incubated at 37° C. for 60 minutes and the % compound remaining was assessed.

[2] = Plasma stability assay, rat plasma; format: in vitro ADME; details: 37° C., 10 μM
[3] = Plasma stability assay, dog plasma; format: in vitro ADME; details: 37° C., 2 μM; for % remaining at time point in minutes, 15 min: 15 min (as headed); for % remaining at time point in minutes, 120 min: 120 min (as headed); for % remaining at time point in minutes, 480 min: 480 min (as headed); for % remaining at time point in minutes, 1440 min: 1440 min (as headed)
Protocol: (§2) Plasma stability determination of the test compounds in rat, dog, cynomolgus monkey and human plasma is performed using HPLC-MS. For rat, incubations are carried out in 96-well polypropylene plates in 5 aliquots of 70 μL each (one for each time point). […] Five time points are analyzed (0, 15, 120, 480 and 1440 min). […] All incubations are performed in duplicates. The samples are analyzed by HPLC-MS. The percentage of parent compound remaining after incubation in plasma is determined.

[4] = Plasma stability assay, monkey plasma; format: in vitro ADME, cynomolgus monkey; details: 37° C., 2 μM; for % remaining at time point in minutes, 15 min: 15 min (as headed); for % remaining at time point in minutes, 120 min: 120 min (as headed); for % remaining at time point in minutes, 480 min: 480 min (as headed); for % remaining at time point in minutes, 1440 min: 1440 min (as headed)
Protocol: as §2

[5] = Liver S9 fraction stability, monkey; format: in vitro ADME, cynomolgus monkey; details: 1.0 mg/ml S9 protein, 2 μM, 37° C.
Protocol: as §1

[6] = Plasma stability assay, human plasma; format: in vitro ADME; details: 37° C., 2 μM; for % remaining at time point in minutes, 15 min: 15 min (as headed); for % remaining at time point in minutes, 120 min: 120 min (as headed); for % remaining at time point in minutes, 480 min: 480 min (as headed); for % remaining at time point in minutes, 1440 min: 1440 min (as headed)
Protocol: as §2

[7] = Liver S9 fraction stability, human; format: in vitro ADME; details: 1.0 mg/ml S9 protein, 2 μM, 37° C.
Protocol: as §1

[8] = Solubility determination in oil (cottonseed oil, sesame oil); details: Sesame oil; heating temp. 60 °C, obs. temp. 25 °C
Protocol: A known amount of test substance (˜40 mg) was weighed into the vial, 100 μL of oil was added and heated to 60° C. and then system was slurried to reach equilibrium. […] Extra oil was added into the vial once compound precipitated out and then the system was re-equilibrated at 1000 rpm at room temperature (25° C.). Final concentration was determined by HPLC method as described below in Table 6a and 6b.

[9] = Physical characterization of solid state drug substance (PLM, XRPD, DSC, TGA); format: physicochemical; details: at 120° C., heated from room temperature at 10° C./minute
Protocol: The analysis of the physical characteristics of drug substances that were in a solid state was conducted using polarized light microscopy (PLM), X-ray powder diffractometer (XRPD) assessment, Differential Scanning calorimetry (DSC) and Thermal Gravimetric Analysis (TGA). For PLM, samples were dispersed in immersion oil and were observed using an ocular lens (10×) and objective lens (20×) under crossed polarizers. For XRPD, samples were run on a diffractometer using the following method: Tube—Cu: K-alpha (λ=1.54179 Å); Generator—Voltage 40 kV, Current 40 mA; Scan scope—3 to 40°; sample rotation speed—15 rpm; scanning rate—10 deg/min. For DSC, ˜1 mg of sample was tested using a crimped aluminum pan and covered by a lid with a hole, heated from room temperature to 300° C. at a speed of 10° C./minute. For TGA, 2-5 mg of sample was placed in an open platinum pan and heated from room temperature to 300° C. at a rate of 10° C./minute.

[10] = Polymorph screening of solid state drug substances; details: for XRPD results (Dried): stirred 50 °C 72 hours, solids dried; for Visual observation 50° C. / Visual observation RT: target conc. 100 mg/ml

Row | Structure (SMILES) | Liver S9 Fraction Stability % remaining at 60 minutes, Dog [1] | % remaining at time point in minutes, 0 min [2] | % remaining at time point in minutes, 15 min [2] | % remaining at time point in minutes, 120 min [2] | % remaining at time point in minutes, 480 min [2] | % remaining at time point in minutes, 1440 min [2] | % remaining at time point in minutes, 0 min [3] | % remaining at time point in minutes, 15 min [3] | % remaining at time point in minutes, 120 min [3] | % remaining at time point in minutes, 480 min [3] | % remaining at time point in minutes, 1440 min [3] | % remaining at time point in minutes, 0 min [4] | % remaining at time point in minutes, 15 min [4] | % remaining at time point in minutes, 120 min [4] | % remaining at time point in minutes, 480 min [4] | % remaining at time point in minutes, 1440 min [4] | Liver S9 Fraction Stability % remaining at 60 minutes, Monkey [5] | % remaining at time point in minutes, 0 min [6] | % remaining at time point in minutes, 15 min [6] | % remaining at time point in minutes, 120 min [6] | further results
1 | CCCCCCCCCCCC(=O)OCN1C(=O)CCc2ccc(OCCCCN3CCN(c4cccc(Cl)c4Cl)CC3)cc21 [Aripiprazole lauroxil, reference compound] | 66.1% | 100% | 84% | 85.5% | 76.4% | 46% | 100% | 103% | 81.3% | 78.6% | 74.3% | 100% | 95.2% | 94.5% | 75.5% | 83.2% | 56.6% | 100% | 99.7% | 80% | % remaining at time point in minutes, 480 min [6]: 73.2%; % remaining at time point in minutes, 1440 min [6]: 75.5%; Liver S9 Fraction Stability % remaining at 60 minutes, Human [7]: 47.8%
2 | CCCCCCCCCCCCCCCC(=O)OC1CCCn2c1nc(C)c(CCN1CCC(c3noc4cc(F)ccc34)CC1)c2=O (stereo not shown) [Paliperidone palmitate, reference compound] | 56.4% |  |  |  |  |  | 100% | 91.2% | 88.4% | 95.9% | 93.1% | 100% | 92% | 89.5% | 98.4% | 92.5% | 57.4% | 100% | 103.7% | 97.6% | % remaining at time point in minutes, 480 min [6]: 109.1%; % remaining at time point in minutes, 1440 min [6]: 104.1%; Liver S9 Fraction Stability % remaining at 60 minutes, Human [7]: 47.8%
3 | CCCCCCCCCCCCOC(=O)Oc1ccc2c3c1O[C@H]1C(=O)CC[C@@]4(O)C(C2)N(CC2CC2)CC[C@]314 [Compound 11, (4aS,7aR,12bS)-3-(cyclopropylmethyl)-4a-hydroxy-7-oxo-2,3,4,4a,5,6,7,7a-octahydro-1H-4,12-methanobenzofuro[3,2-e]isoquinolin-9-yl dodecyl carbonate] |  | 100% | 0.7% | 0.3% | 0.2% | 0% |  |  |  |  |  |  |  |  |  |  |  |  |  |  | Approximate Solubility (mg/mL) in Excipient: Sesame oil [8]: <50 mg/mL; Thermal Gravimetric Analysis, weight loss [9]: Weight loss of 0.30% at; XRPD results (Dried) ([10]; Acetone): Pattern A; Visual observation 50° C. ([10]; Acetone): Clear; Visual observation RT ([10]; Acetone): Slurry; XRPD results (Dried) ([10]; EtOAc): Pattern A; Visual observation 50° C. ([10]; EtOAc): Clear; Visual observation RT ([10]; EtOAc): Slurry; XRPD results (Dried) ([10]; Heptane): Pattern B; Visual observation 50° C. ([10]; Heptane): Clear; Visual observation RT ([10]; Heptane): Clear; XRPD results (Dried) ([10]; Isopropanol): Pattern A; Visual observation 50° C. ([10]; Isopropanol): Clear; Visual observation RT ([10]; Isopropanol): Slurry; XRPD results (Dried) ([10]; MTBE): Pattern A; Visual observation 50° C. ([10]; MTBE): Clear; Visual observation RT ([10]; MTBE): Clear; Comment: stability of initial crystal form (pattern A) ([10]; polymorph screen over Heptane, MTBE, Isopropanol, EtOAc, Acetone): to be stable form; Pattern A generated
